# Reference: patent US20250386824A1, “COMPOSITION OF AN ORGANIC SULFIDE COMBINED WITH GLUCOSE AND USE THEREOF IN CONTROLLING MELON FUSARIUM WILT” (CH BIOTECH R&D CO., LTD., priority 2024, published 2025)
# Columns and labels:
# [1] = system: melon's third leaf; test: Chlorophyll fluorescence photosynthesis: electron transport rate (ETR) of melon's third leaf after foliar spraying; conditions: foliar spray, after 30 minutes of actinic light, mean ± SE, n=5
# Description: In the following examples, a melon species Cucumis melo var. makuwa cv. Silver Light (Nongyou Seedling Co., Kaohsiung, Taiwan) is used as the test crop. Seeds of the test crop are stirred and rinsed in warm water at 65° C. for 20 minutes, then further stirred and rinsed with sterile water twice, each for 20 minutes, and then placed in a 25° C. incubator for germination for 48 hours. After the radicle has grown, the seedlings are sown in trays containing Sondermischung (perlite high) cultivating medium (Gramoflor, Germany). When the leaves are fully expanded, the seedlings are transplanted into 3.5-inch plastic pots (inner diameter: 9 cm) and continue planting. The melon plants are ready for following experiments when their first real leaves are fully expanded (the plant is about 7 days of age).
# The compositions of 3% (w/v) glucose amended with 1% (w/v) an organic sulfide selected from allicin, dimethyl disulfide (DMDS), lipoic acid, methionine and taurine, with two hundred-fold and four hundred-fold dilution in water, are sprayed on the leaves of the melon seedlings, and the chlorophyll fluorescence photosynthesis of the third real leaf is investigated during the growing period of melons. […] The third real leaf of melon is clipped to measure the leaf chlorophyll fluorescence parameters. […]
# [2] = system: Fusarium oxysporum f.sp. melonis; test: Greenhouse pot test: disease severity of melon Fusarium wilt after foliar spraying and root-cut inoculation; format: in vivo; conditions: Example 1, FIG. 1: 3% (w/v) glucose + 1% (w/v) organic sulfide, 400-fold dilution, foliar spray at 7 and 14 days of age; 3 weeks after inoculation; untreated control 2.33±0.21; mean ± SE
# Description: Preparation of the inoculation source of Fusarium oxysporum f.sp. melonis (FOM): the soil-borne pathogen FOM strain used in the example is isolated from diseased melon plants in Wufeng District, Taichung City (24°02′24.6 ″N 120°39′55.0 ″E). The single spores of the strain are independently cultured on potato dextrose agar (PDA; Difco®) medium plates in a 25° C. incubator with 12 hours of light exposure per day. The mycelial pieces of the FOM strain are inoculated into ½ potato dextrose broth (PDB) and incubated in shaking flasks for 14 days. After the incubation, the culture is filtered through a double-layer Miracloth (475855 Calbiochem, Merk Darmstadt, Germany) to obtain a spore suspension with a concentration of 10^5 spores/mL, which is ready to be used in the pathogenic infection of melon root.
# At the 24 hours after the final spraying, the root of test melon plants is washed with water to remove the cultivating medium. […] After 3 weeks, the symptoms and severity of wilt disease in melon plants are observed and recorded. […]
# The disease severity is calculated by the following formula, wherein si represents the severity of wilt disease; n; represents the number of plants with various severity, and N represents the total number of plants investigated.
# Statistical Analysis. The results are analyzed using RStudio v.4.3.0 (R) software. […]
structure (smiles),measurement,setting,value
"CSSC [DMDS, dimethyl disulfide]",ETR (electron transport rate of PSII on third leaf of melon),[1]; 200X dilution of 1% (w/v) organic sulfide with 3% (w/v) glucose,110.24 ± 2.72 μmol electrons m^−2 s^−1
same,ETR (electron transport rate of PSII on third leaf of melon),[1]; 400X dilution of 1% (w/v) organic sulfide with 3% (w/v) glucose,117.68 ± 3.83 μmol electrons m^−2 s^−1
same,Disease severity of melon Fusarium wilt (scale 0-4),[2],1.83±0.25
"NCCS(=O)(=O)O [Taurine, 2-aminoethanesulfonic acid]",Disease severity of melon Fusarium wilt (scale 0-4),[2],2.00±0.18
